Results on five cell lines are retold here after the supplement of paper PMC10307832.

What all share (assay): relative viability (nuclei count vs DMSO), 5 days (fraction); higher = more cells survive
Compound in the experiment “IPA-3 + Pictilisib”: C1=CC=C2C(=C1)C=CC(=C2SSC3=C(C=CC4=CC=CC=C43)O)O [IPA-3] + CS(=O)(=O)N1CCN(Cc2cc3nc(-c4cccc5[nH]ncc45)nc(N4CCOCC4)c3s2)CC1 [Pictilisib] (partner 1 µM)
The method in brief: (§1)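 Five library-drug doses in √10 steps were combined with a fixed anchor-drug dose, or a single drug was given alone, by pin tool to lung cancer cell lines in 1536-well plates the day after seeding. Nuclei were stained and counted after 5 days. Relative viability is the nuclei count in treated wells over that in vehicle wells, taken as the median of duplicate plates.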

Compound in the experiment “RAF265 + Trametinib”: Cn1c(Nc2ccc(C(F)(F)F)cc2)nc2cc(Oc3ccnc(-c4ncc(C(F)(F)F)[nH]4)c3)ccc21 [RAF265] + CC(=O)Nc1cccc(-n2c(=O)n(C3CC3)c(=O)c3c(Nc4ccc(I)cc4F)n(C)c(=O)c(C)c32)c1 [Trametinib] (partner 0.02 µM)
The method in brief: as §1

Compound in the experiment “RAF265 + Palbociclib”: Cn1c(Nc2ccc(C(F)(F)F)cc2)nc2cc(Oc3ccnc(-c4ncc(C(F)(F)F)[nH]4)c3)ccc21 [RAF265] + CC(=O)c1c(C)c2cnc(Nc3ccc(N4CCNCC4)cn3)nc2n(C2CCCC2)c1=O [Palbociclib] (partner 0.5 µM)
Summed up: as §1

Compound in the experiment “RAF265 + AZD7762”: Cn1c(Nc2ccc(C(F)(F)F)cc2)nc2cc(Oc3ccnc(-c4ncc(C(F)(F)F)[nH]4)c3)ccc21 [RAF265] + NC(=O)Nc1cc(-c2cccc(F)c2)sc1C(=O)N[C@H]1CCCNC1 [AZD7762] (partner 0.2 µM)
The method in brief: as §1

As for 201T, the relative viability in the experiment with IPA-3 + Pictilisib (first compound 0.2 µM) was 0.748; in the experiment with IPA-3 + Pictilisib (first compound 0.6325 µM), 0.684; with IPA-3 + Pictilisib (first compound 2 µM) it was 0.671; in the experiment with IPA-3 + Pictilisib (first compound 6.325 µM) it was 0.714; in the experiment with IPA-3 + Pictilisib (first compound 20 µM), 0.809; in the experiment with RAF265 + Trametinib (first compound 0.01 µM), 0.781. The relative viability with RAF265 + Trametinib (first compound 0.03162 µM) was 0.696; in the experiment with RAF265 + Trametinib (first compound 0.1 µM) it was 0.717; in the experiment with RAF265 + Trametinib (first compound 0.3162 µM), 0.748; with RAF265 + Trametinib (first compound 1 µM), 0.716; with RAF265 + Palbociclib (first compound 0.01 µM), 0.344; in the experiment with RAF265 + Palbociclib (first compound 0.03162 µM), 0.326. For the same cell line, the relative viability with RAF265 + Palbociclib (first compound 0.1 µM) came out at 0.369; with RAF265 + Palbociclib (first compound 0.3162 µM) it was 0.377; with RAF265 + Palbociclib (first compound 1 µM), 0.338; with RAF265 + AZD7762 (first compound 0.01 µM), 0.596; with RAF265 + AZD7762 (first compound 0.03162 µM), 0.578; in the experiment with RAF265 + AZD7762 (first compound 0.1 µM) it was 0.653. The relative viability with RAF265 + AZD7762 (first compound 0.3162 µM) turned out to be 0.668; with RAF265 + AZD7762 (first compound 1 µM), 0.783.

For A549, the relative viability with IPA-3 + Pictilisib (first compound 0.2 µM) came to 0.607; with IPA-3 + Pictilisib (first compound 0.6325 µM), 0.445; with IPA-3 + Pictilisib (first compound 2 µM), 0.713; with IPA-3 + Pictilisib (first compound 6.325 µM), 0.483; in the experiment with IPA-3 + Pictilisib (first compound 20 µM), 0.696.

For the cell line A-427, the relative viability with IPA-3 + Pictilisib (first compound 0.2 µM) was determined as 0.682; in the experiment with IPA-3 + Pictilisib (first compound 0.6325 µM) it was 0.683; with IPA-3 + Pictilisib (first compound 2 µM) it was 0.784; in the experiment with IPA-3 + Pictilisib (first compound 6.325 µM), 0.604; with IPA-3 + Pictilisib (first compound 20 µM), 0.784; in the experiment with RAF265 + Trametinib (first compound 0.01 µM) it was 0.905. In addition, the relative viability with RAF265 + Trametinib (first compound 0.03162 µM) amounted to 0.507; with RAF265 + Trametinib (first compound 0.1 µM), 0.592; in the experiment with RAF265 + Trametinib (first compound 0.3162 µM) it was 0.403; with RAF265 + Trametinib (first compound 1 µM), 0.198; in the experiment with RAF265 + Palbociclib (first compound 0.01 µM), 0.579; with RAF265 + Palbociclib (first compound 0.03162 µM) it was 0.488. Also, the relative viability was 0.541 with RAF265 + Palbociclib (first compound 0.1 µM); 0.436 in the experiment with RAF265 + Palbociclib (first compound 0.3162 µM); 0.238 in the experiment with RAF265 + Palbociclib (first compound 1 µM); 0.798 in the experiment with RAF265 + AZD7762 (first compound 0.01 µM); 0.746 with RAF265 + AZD7762 (first compound 0.03162 µM); 0.641 with RAF265 + AZD7762 (first compound 0.1 µM). The relative viability was found to be 0.448 with RAF265 + AZD7762 (first compound 0.3162 µM) and 0.247 with RAF265 + AZD7762 (first compound 1 µM).

Regarding ABC-1, the relative viability with IPA-3 + Pictilisib (first compound 0.2 µM) is 0.863; with IPA-3 + Pictilisib (first compound 0.6325 µM), 0.698; with IPA-3 + Pictilisib (first compound 6.325 µM), 0.803; with IPA-3 + Pictilisib (first compound 20 µM) it was 0.75; with RAF265 + Palbociclib (first compound 0.01 µM), 0.633; in the experiment with RAF265 + Palbociclib (first compound 0.03162 µM), 0.644. The relative viability with RAF265 + Palbociclib (first compound 0.1 µM) was determined as 0.646; with RAF265 + Palbociclib (first compound 0.3162 µM) it was 0.528; in the experiment with RAF265 + Palbociclib (first compound 1 µM), 0.47; with RAF265 + AZD7762 (first compound 0.01 µM) it was 0.993; with RAF265 + AZD7762 (first compound 0.03162 µM), 0.771; with RAF265 + AZD7762 (first compound 0.1 µM), 0.798. For the same cell line, the relative viability in the experiment with RAF265 + AZD7762 (first compound 0.3162 µM) is 1.06; in the experiment with RAF265 + AZD7762 (first compound 1 µM) it was 0.47.

BEN: the relative viability in the experiment with IPA-3 + Pictilisib (first compound 0.2 µM) worked out at 0.6; with IPA-3 + Pictilisib (first compound 0.6325 µM) it was 0.596; with IPA-3 + Pictilisib (first compound 2 µM), 0.66; with IPA-3 + Pictilisib (first compound 6.325 µM), 0.697; with IPA-3 + Pictilisib (first compound 20 µM), 0.601; with RAF265 + Trametinib (first compound 0.01 µM), 1.12. The relative viability in the experiment with RAF265 + Trametinib (first compound 0.03162 µM) was determined as 1.25; in the experiment with RAF265 + Trametinib (first compound 0.1 µM) it was 1.05; in the experiment with RAF265 + Trametinib (first compound 0.3162 µM) it was 1.17; with RAF265 + Trametinib (first compound 1 µM) it was 0.908; with RAF265 + Palbociclib (first compound 0.01 µM) it was 0.459; with RAF265 + Palbociclib (first compound 0.03162 µM) it was 0.477. The relative viability with RAF265 + Palbociclib (first compound 0.1 µM) came to 0.509; with RAF265 + Palbociclib (first compound 0.3162 µM), 0.468; in the experiment with RAF265 + Palbociclib (first compound 1 µM), 0.441; with RAF265 + AZD7762 (first compound 0.01 µM), 0.675; with RAF265 + AZD7762 (first compound 0.03162 µM), 0.805; with RAF265 + AZD7762 (first compound 0.1 µM) it was 0.837. Besides, the relative viability with RAF265 + AZD7762 (first compound 0.3162 µM) stood at 0.674; with RAF265 + AZD7762 (first compound 1 µM) it was 0.661.
